# Data from patent publication US12540150B1, “Fluorogenic probe using a Mislow-Evans rearrangement for real-time imaging of hydrogen peroxide” (University of Pittsburgh—Of the Commonwealth System of …, priority 2020, dated 2026).
# “And” between values parts separate entries of the source, which are not always exact repeats. Identical values can stand only once.
# Experiments:
# [1] = Fluorescence intensity of selenide 1 and phenol 5; assay type: physicochemical
# Procedure: All fluorescence measurements (excitation 490 nm, emission 510-570 nm) were carried out using a Promega Biosystems Modulus II Microplate Reader or a HoribaMax Fluorometer unless otherwise stated. Data analysis was performed using GraphPad Prism 8.
# The fluorescence intensity of selenide 1 and phenol 5 were investigated. Solutions containing ultrapure water (681 μL), […] phosphate pH 7 buffer (31 μL), DMSO (28.1 μL), and 80 μM 1 or phenol 5 in DMSO (9.4 μL) were made. Aliquots of these solutions (200 μL) were transferred to the wells of a black 96-well plate and the fluorescence was measured. As evident from FIG. 10 and Table 1, the difference in fluorescence intensity of probe 1 and phenol 5, is 27-fold. Generally, O-alkylation of Pittsburgh Green suppresses the fluorescence by 200-400 fold. The somewhat modest fluorescence increase in the current system is attributed to the trace contamination of the fluorescent compound 5 during the purification of the nonfluorescent probe 1.
# [2] = Fluorescence response of 1 with increasing concentrations of H2O2; settings: 0-159 μM H2O2 solutions, phosphate pH 7 buffer, 25° C., 20 min
# Procedure: To verify that 1 could quantitatively measure H2O2 concentrations, 1 was incubated with increasing concentrations of H2O2. A solution of 0-159 μM H2O2 in 5:95 MeCN/50 mM phosphate pH 7 buffer (180 μL) was added to the wells of a black 96-well plate. A solution of 100 μM 1 in MeCN (20 μL) was then added to the wells. The solutions were allowed to incubate at 25° C. for 20 min before the fluorescence was measured.
# [3] = Selectivity of 1: reaction with ^1O2; settings: for Fluorescence: 40 min minus 0 min
# Procedure: Probe 1 was titrated with NaMoO4 and H2O2 to determine whether ^1O2 reacted with the probe 1. A solution of 100 μM 1 in ethanol (20 μL) was added to 5:95 methanol/50 mM phosphate pH 7 buffer (140 μL). Water, 1 mM sodium azide, or 104 U/mL catalase (20 μL) was added to the mixture. NaMoO4·2H2O (11.1 mg) was added to ultrapure water (2.00 mL). This solution was diluted to 20 μM, 200 μM, and 2.00 mM. H2O2 was diluted to 200 μM and 2.00 mM. Equal volumes of NaMoO4 solution and H2O2 were added together, and an aliquot (20 μL) was immediately transferred to the solution containing 1. The fluorescence intensity was measured immediately and again after incubation at 25° C. for 40 min. A large fluorescence increase was observed only in the samples containing […] of both Na2MoO4 and H2O2(FIG. 16 and Table 7). […] 10^4 UmL^−1 catalase was added to the solutions to verify that 1 indeed responded to excess H2O2 that had not reacted with the Na2MoO4. The addition of catalase abolished the fluorescence signal observed in the presence of high concentrations of H2O2(FIG. 16 and Table 7). The fluorescence values in Table 7 are the fluorescence at 40 min minus the fluorescence at 0 min.
# [4] = Selectivity of 1: reaction with ClO^−; settings: for Fluorescence Intensity: pH 7, 25° C., 15 min
# Procedure: Next, it was tested whether OCl^− and ONOO^− (peroxynitrite), would react with 1. A solution of 0, 1, 10, or 22 μM ONOO— in 0.3 M NaOH (20 μL) or 1, 10, 100, or 1000 μM NaOCl in water (20 μL) was added to the wells of a black 96-well plate. A solution of 10 μM 1 in DMSO (560 μL) and 5:95 MeCN/1.2 M phosphate pH 7 buffer (4.48 mL) was made; this solution (180 μL) was transferred to each of the wells. The samples were allowed to incubate at 25° C. for 15 min before the fluorescence was measured. […] This may be attributed to trace amounts of H2O2 in the ONOO^− solution.
# [5] = Selectivity of 1: reaction with tBuOOH; settings: for Fluorescence Intensity: pH 7, 25° C., 15 min
# Procedure: 'BuOOH was also tested for reactivity with 1. A solution of 5:95 MeCN/50 mM phosphate pH 7 buffer (160 μL) was added to the wells of a black 96-well plate. 10 μM 1 in DMSO (20 μL) was added to each well. 0 mM H2O2 in water (20 μL) or 0, 10, or 100 μM tBuOOH in DMSO (20 μL) were then added to the wells.
# [6] = tested on: RAW cells; test: Imaging of endogenous H2O2 upon ionomycin stimulation in RAW cells; assay type: cell-based
# Text: After detecting exogenously added H2O2 in cells, the focus shifted to more biologically relevant, endogenous H2O2. It was attempted to monitor endogenous H2O2 production upon stimulation with ionomycin in RAW cells. […] In contrast, with probe 1, a significant response was observed within 30 s after the addition of ionomycin relative to the baseline fluorescence (FIG. 24B-C) and peaked at 48 s.
# [7] = tested on: endothelial cells; test: Localization of 1 in endothelial cells with MitoTracker Red, ionomycin stimulation; assay type: cell-based; settings: ionomycin 10 μM
# Procedure: To study the localization of 1, endothelial cells were simultaneously incubated with 1 μM MitoTracker® Red FM (ThermoFisher Scientific) for 20 min at 37° C. (FIG. 24D). The dish was inserted in a closed, thermo-controlled (37° C.) stage top incubator (Tokai Hit Co., Shizuoka-ken, Ja-pan) atop the motorized stage of an inverted Nikon TiE fluorescent microscope (Nikon Inc., Melville, NY) equipped with a 60× oil immersion optic (Nikon, CFI PlanFluor, NA 1.49) and NIS Elements Software. The sample was excited using the 555 nm line and detected using a TRITC filter set.
structure (smiles),measurement,setting,value
"Oc1ccc2c(c1)Oc1cc(O/C=C/C[Se]c3ccccc3)ccc1[C@@]21OCc2ccccc21 [Compound 1, (S,E)-6′-((3-(Phenylselanyl)prop-1-en-1-yl)oxy)-3H-spiro[isobenzofuran-1,9′-xanthen]-3′-ol]",signal increase in the conversion if trace phenol 5 can be removed from selenide 1,[1]; extrapolated,125-250 fold
same,difference in fluorescence intensity of probe 1 and phenol 5,[1]; phosphate pH 7 buffer,27 fold
same,Fluorescence Intensity,"[1]; water/phosphate pH 7 buffer/DMSO, 200 μL, excitation 490 nm, emission 510-570 nm, replicates n = 3","7,053 and 11,524 and 8,556"
same,fluorescence dependence on H2O2 concentration,[2],increased linearly with H2O2 concentration
same,cause of fluorescence increase (reaction with ^1O2),[3],not by ^1O2 itself
same,Fluorescence,"[3]; NaN3, NaMoO4 0 μM, 0 μM H2O2","47,427 and 27,816 and 33,822"
same,Fluorescence,"[3]; NaN3, NaMoO4 0 μM, 10 μM H2O2","22,037 and 25,574 and 26,509"
same,Fluorescence,"[3]; NaN3, NaMoO4 0 μM, 100 μM H2O2","86,779 and 47,879 and 71,128"
same,Fluorescence,"[3]; NaN3, NaMoO4 1 μM, 0 μM H2O2","17,056 and 15,590 and 28,737"
same,Fluorescence,"[3]; NaN3, NaMoO4 1 μM, 10 μM H2O2","47,687 and 30,921 and 55,460"
same,Fluorescence,"[3]; NaN3, NaMoO4 1 μM, 100 μM H2O2","75,276 and 58,618 and 52,801"
same,Fluorescence,"[3]; NaN3, NaMoO4 10 μM, 0 μM H2O2","48,985 and 26,189 and 39,286"
same,Fluorescence,"[3]; NaN3, NaMoO4 10 μM, 10 μM H2O2","41,011 and 44,837 and 41,481"
same,Fluorescence,"[3]; NaN3, NaMoO4 10 μM, 100 μM H2O2","128,720 and 99,199 and 137,922"
same,Fluorescence,"[3]; NaN3, NaMoO4 100 μM, 0 μM H2O2","41,150 and 60,360 and 31,422"
same,Fluorescence,"[3]; NaN3, NaMoO4 100 μM, 10 μM H2O2","36,764 and 62,417 and 61,596"
same,Fluorescence,"[3]; NaN3, NaMoO4 100 μM, 100 μM H2O2","427,359 and 459,433 and 473,881"
same,Fluorescence,"[3]; catalase, NaMoO4 1 μM, 100 μM H2O2","54,776 and 34,302 and 31,904"
same,Fluorescence,"[3]; catalase, NaMoO4 10 μM, 100 μM H2O2","66,499 and 39,161 and 54,221"
same,Fluorescence,"[3]; catalase, NaMoO4 100 μM, 100 μM H2O2","137,047 and 103,725 and 102,097"
same,Fluorescence,"[3]; no additive, NaMoO4 0 μM, 0 μM H2O2","59,711 and 30,413 and 38,407"
same,Fluorescence,"[3]; no additive, NaMoO4 0 μM, 100 μM H2O2","48,948 and 86,970 and 68,803"
same,Fluorescence,"[3]; no additive, NaMoO4 1 μM, 0 μM H2O2","36,829 and 38,478 and 40,456"
same,Fluorescence,"[3]; no additive, NaMoO4 1 μM, 10 μM H2O2","27,103 and 23,437 and 25,142"
same,Fluorescence,"[3]; no additive, NaMoO4 1 μM, 100 μM H2O2","64,673 and 74,322 and 79,262"
same,Fluorescence,"[3]; no additive, NaMoO4 10 μM, 10 μM H2O2","33,243 and 34,233 and 26,543"
same,Fluorescence,"[3]; no additive, NaMoO4 10 μM, 100 μM H2O2","113,217 and 132,450 and 119,014"
same,Fluorescence,"[3]; no additive, NaMoO4 100 μM, 0 μM H2O2","24,734 and 26,617 and 17,702"
same,Fluorescence,"[3]; no additive, NaMoO4 100 μM, 10 μM H2O2","38,768 and 55,874 and 53,722"
same,Fluorescence,"[3]; no additive, NaMoO4 100 μM, 100 μM H2O2","468,686 and 476,166 and 482,448"
same,fluorescence change with increasing concentrations of OCl^−,[4],No statistically significant increase in fluorescence intensity
same,Fluorescence Intensity,[4]; 100 nM NaOCl,"33,503 and 25,413 and 28,088"
same,Fluorescence Intensity,[4]; 1.0 μM NaOCl,"28,551 and 25,590 and 33,211"
same,Fluorescence Intensity,[4]; 10 μM NaOCl,"41,611 and 35,271 and 35,308"
same,Fluorescence Intensity,[4]; 100 μM NaOCl,"46,362 and 40,070 and 41,695"
same,Fluorescence Intensity,[4]; no ROS,"30,591 and 24,478 and 26,025"
same,fluorescence with tBuOOH,[5],did not produce fluorescence even at 10 μM
same,Fluorescence Intensity,[5]; 10 μM ^tBuOOH,"31,650 and 28,922 and 33,363"
same,Fluorescence Intensity,[5]; H2O2,"277,013 and 296,506 and 250,145"
same,Fluorescence Intensity,[5]; no ROS,"34,525 and 36,401 and 39,836"
same,time of fluorescence peak after the addition of ionomycin,[6],48 s
same,time to significant response after the addition of ionomycin,"[6]; 0.5 μM 1, ionomycin 10 μM",≤ 30 s
same,time after the addition of ionomycin of first image showing increased fluorescence,[7],≤ 8 s
